Measured values published in ChEMBL document CHEMBL1158395, “Discovery of novel acetanilide derivatives as potent and selective beta3-adrenergic receptor agonists” (Eur J Med Chem, 2009).

Legend:
[1] = biological target: Beta-3 adrenergic receptor (Homo sapiens, UniProt P13945); assay: Agonist activity at human cloned adrenergic beta3 receptor expressed in CHO cells assessed as increase in cAMP production after 2 days by radioimmunoassay; type: functional, cell-based
[2] = biological target: Beta-2 adrenergic receptor (Homo sapiens, UniProt P07550)
Description: Agonist activity at human cloned adrenergic beta2 receptor expressed in CHO cells assessed as increase in cAMP production after 2 days by radioimmunoassay

[3] = biological target: Beta-1 adrenergic receptor (Homo sapiens, UniProt P08588)
Description: Agonist activity at human cloned adrenergic beta-1 receptor expressed in CHO cells assessed as increase in cAMP production after 2 days by radioimmunoassay

Mus musculus = assay: Hypoglycemic activity in diabetic kk mouse assessed as reduction in plasma glucose levels at 30 mg/kg, po administered for 4 days measured after 15 to 18 hrs by glucose oxidase method; type: functional; set-up: scale not given: the % may be the effect or the level left

Beta-2 adrenergic receptor, sequence (P07550 whole entry): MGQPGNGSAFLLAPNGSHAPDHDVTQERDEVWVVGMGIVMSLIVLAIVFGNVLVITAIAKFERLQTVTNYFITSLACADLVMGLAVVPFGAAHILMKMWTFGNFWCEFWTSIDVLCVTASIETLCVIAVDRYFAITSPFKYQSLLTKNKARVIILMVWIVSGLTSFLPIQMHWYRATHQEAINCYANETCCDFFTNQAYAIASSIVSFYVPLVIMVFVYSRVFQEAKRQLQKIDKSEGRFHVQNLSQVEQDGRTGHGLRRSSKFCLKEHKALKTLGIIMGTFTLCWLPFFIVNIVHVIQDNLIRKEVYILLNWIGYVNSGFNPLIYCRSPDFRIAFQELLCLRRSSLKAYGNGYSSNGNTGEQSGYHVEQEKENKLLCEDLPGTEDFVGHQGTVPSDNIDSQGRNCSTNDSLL
Beta-3 adrenergic receptor, sequence (P13945 whole entry): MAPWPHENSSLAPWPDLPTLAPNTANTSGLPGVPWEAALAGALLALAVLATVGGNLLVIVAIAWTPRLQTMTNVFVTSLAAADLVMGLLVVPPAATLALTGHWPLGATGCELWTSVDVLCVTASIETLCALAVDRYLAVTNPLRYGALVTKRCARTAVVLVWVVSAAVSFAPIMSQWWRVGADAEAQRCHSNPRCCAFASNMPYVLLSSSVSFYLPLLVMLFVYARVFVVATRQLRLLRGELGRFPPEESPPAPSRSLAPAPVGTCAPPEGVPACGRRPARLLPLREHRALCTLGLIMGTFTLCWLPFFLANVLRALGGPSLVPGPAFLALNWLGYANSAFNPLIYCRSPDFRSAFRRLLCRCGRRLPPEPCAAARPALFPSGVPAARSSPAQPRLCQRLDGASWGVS
Beta-1 adrenergic receptor, sequence (P08588 whole entry): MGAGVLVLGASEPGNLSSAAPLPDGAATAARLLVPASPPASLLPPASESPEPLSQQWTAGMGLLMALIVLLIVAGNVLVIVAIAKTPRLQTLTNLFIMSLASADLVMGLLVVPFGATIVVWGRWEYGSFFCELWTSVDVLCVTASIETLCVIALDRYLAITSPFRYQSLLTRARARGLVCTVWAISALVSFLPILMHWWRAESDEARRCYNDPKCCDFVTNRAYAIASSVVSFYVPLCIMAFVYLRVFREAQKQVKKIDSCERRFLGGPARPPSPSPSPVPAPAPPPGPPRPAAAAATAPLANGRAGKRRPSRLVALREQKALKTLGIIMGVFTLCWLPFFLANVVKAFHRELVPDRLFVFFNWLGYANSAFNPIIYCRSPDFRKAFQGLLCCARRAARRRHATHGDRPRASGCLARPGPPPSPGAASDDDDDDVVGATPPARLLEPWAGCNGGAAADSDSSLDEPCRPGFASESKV

| EC50 [1] [nM] | EC50 [2] [nM] | EC50 [3] [nM] | Compound | Activity (Mus musculus) [%] |
| --- | --- | --- | --- | --- |
| 78 | > 100000 | 1600 | O=S(=O)(Nc1ccc(CCNC[C@H](O)COc2ccc(O)cc2)cc1)c1ccccc1 |  |
| 290 | > 100000 | 2700 | O=C(Cc1ccccn1)Nc1ccc(CCNC[C@H](O)COc2ccc(O)cc2)cc1 | 32 |
| 960 | > 100000 | 660 | NC(C(=O)Nc1ccc(CCNC[C@H](O)COc2ccc(O)cc2)cc1)c1ccccc1 (some centres not stated) |  |
| 1700 | > 100000 | 760 | O=C(Cc1ccccc1)Nc1ccc(CCNC[C@H](O)COc2ccc(O)cc2)cc1 |  |
| 1700 | > 100000 | 280 | COc1ccc(CC(=O)Nc2ccc(CCNC[C@H](O)COc3ccc(O)cc3)cc2)cc1 |  |
| 960 | > 100000 | 590 | O=C(Nc1ccc(CCNC[C@H](O)COc2ccc(O)cc2)cc1)C(O)c1ccccc1 (some centres not stated) |  |
| 650 | > 100000 | 1700 | O=C(Cc1ccc2ccccc2n1)Nc1ccc(CCNC[C@H](O)COc2ccc(O)cc2)cc1 |  |
| 83 | > 100000 | 3100 | O=C(Cc1cnccn1)Nc1ccc(CCNC[C@H](O)COc2ccc(O)cc2)cc1 | 13 |
| 360 | > 100000 | 960 | COc1ccccc1CC(=O)Nc1ccc(CCNC[C@H](O)COc2ccc(O)cc2)cc1 |  |
| 560 | > 100000 | 710 | COc1cccc(CC(=O)Nc2ccc(CCNC[C@H](O)COc3ccc(O)cc3)cc2)c1 |  |
| 110 | > 100000 | > 100000 | O=C(Cc1ncccn1)Nc1ccc(CCNC[C@H](O)COc2ccc(O)cc2)cc1 | 20 |
| 1200 | > 100000 | 190 | O=C(Cc1ccc(Cl)cc1)Nc1ccc(CCNC[C@H](O)COc2ccc(O)cc2)cc1 |  |
| 740 | > 100000 | 720 | O=C(Cc1ccccc1Cl)Nc1ccc(CCNC[C@H](O)COc2ccc(O)cc2)cc1 |  |

| Compound | EC50 [1] [nM] | EC50 [2] [nM] | EC50 [3] [nM] | Activity (Mus musculus) [%] |
| --- | --- | --- | --- | --- |
| O=C(Cc1cccs1)Nc1ccc(CCNC[C@H](O)COc2ccc(O)cc2)cc1 | 500 | > 100000 | 550 |  |
| O=C(Nc1ccc(CCNC[C@H](O)COc2ccc(O)cc2)cc1)C(c1ccccc1)c1ccccc1 | 120 | > 100000 | 180 |  |
| O=C(Cc1ccsc1)Nc1ccc(CCNC[C@H](O)COc2ccc(O)cc2)cc1 | 550 | > 100000 | 490 |  |
| O=C(CC1C=Nc2ccccc21)Nc1ccc(CCNC[C@H](O)COc2ccc(O)cc2)cc1 (some centres not stated) | 490 | > 100000 | 550 |  |
| O=C(Cc1ccc2ccccc2c1)Nc1ccc(CCNC[C@H](O)COc2ccc(O)cc2)cc1 | 240 | > 100000 | 150 |  |
| O=C(Cc1cccc(Cl)c1)Nc1ccc(CCNC[C@H](O)COc2ccc(O)cc2)cc1 | 890 | > 100000 | 83 |  |
| O=C(Cc1ccncc1)Nc1ccc(CCNC[C@H](O)COc2ccc(O)cc2)cc1 | 520 | > 100000 | 260 |  |
| O=C(Cc1cccnc1)Nc1ccc(CCNC[C@H](O)COc2ccc(O)cc2)cc1 | 1500 | > 100000 | 910 |  |
| O=C(Cc1cc2ccccc2cn1)Nc1ccc(CCNC[C@H](O)COc2ccc(O)cc2)cc1 | 140 | > 100000 | 350 |  |
| O=C(Cc1cccc2ccccc12)Nc1ccc(CCNC[C@H](O)COc2ccc(O)cc2)cc1 | 470 | > 100000 | 600 |  |
